Holding throughout (assay type): in vivo
Assay [1] concerns green peach aphid (Myzus persicae). The assay can be described thus: Myzus persicae test. The settings on record: 24 h, read-out: Kill in % after 1^d. The protocol: (§1) • Solvents: 78 parts by weight of acetone 1.5 parts by weight of dimethylformamide • Emulsifier: 0.5 part by weight of alkylaryl polyglycol ether
(§2) To produce a suitable preparation of active compound, 1 part by weight of active compound is mixed with the stated amount of solvent and emulsifier, and the concentrate is diluted with emulsifier-containing water to the desired concentration.
Cabbage leaves (Brassica oleracea) which are heavily infested by the green peach aphid (Myzus persicae) are treated by spraying with the active compound preparation of the desired concentration.
After the desired period of time, the kill in % is determined 100% means that all of the aphids have been killed; 0% means that none of the aphids have been killed. The kill rates determined are entered into Colby's formula (see above).

The subject of assay [2] is greenhouse red spider mite (Tetranychus urticae). The assay can be described thus: Tetranychus urticae test (OP-resistant/spray treatment). The protocol:
as §1, §2
Discs of bean leaves (Phaseolus vulgaris) which are infested by all stages of the greenhouse red spider mite (Tetranychus urticae) are sprayed with an active compound preparation of the desired concentration.
After the desired period of time, the effect in % is determined. 100% means that all of the spider mites have been killed; 0% means that none of the spider mites have been killed.

Assay [3] has as its system larvae of the mustard beetle (Phaedon cochleariae). The assay can be described thus: Phaedon cochleariae larvae test. Particulars: for Kill in % after 2^d: sprayed cabbage leaves.
For assay [4], the system named is larvae of the armyworm (Spodoptera frugiperda). The assay can be described thus: Spodoptera frugiperda test. Particulars: sprayed cabbage leaves.
Where [5] appears, read: Tetranychus urticae, 144 h, single active compound, 100 g/ha, 6 d, read-out: Kill in % after 6 d.
Where [6] appears, read: Phaedon cochleariae, 144 h, single active compound, 20 g/ha, 6 d, read-out: Kill in % after 6 d.
Setting [7] is: Phaedon cochleariae, 144 h, single active compound, 100 g/ha, 6 d, read-out: Kill in % after 6 d.
Setting [8] is: 200 g/ha, spray on infested cabbage leaves, after 1 d.
Setting [9] is: Phaedon cochleariae, 144 h, single active compound, 200 g/ha, 6 d, read-out: Kill in % after 6 d.
Where [10] appears, read: Tetranychus urticae, 144 h, read-out: Kill in % after 6 d.
The mark [11] stands for this setting: single active compound, 200 g/ha.
The mark [12] stands for this setting: single active compound, 100 g/ha.
The mark [13] stands for this setting: single active compound, 500 g/ha, 6 d.

Molecules are shown by their SMILES. Like-named read-outs stand apart in the source and are kept apart here.

For `O=C1C=C(N(CCF)Cc2ccc(Cl)nc2)CO1` [compound (I-4), 4-{[(6-chloropyrid-3-yl)methyl](2-fluoroethyl)amino}furan-2(5H)-one], the pest or weed control at 0.8 g/ha in assay [1] (0.8 g/ha, spray on infested cabbage leaves, after 1 d) was found to be 50%. In assay [2] (Tetranychus urticae, 144 h, single active compound, 4 g/ha, 6 d, read-out: Kill in % after 6 d), the pest or weed control at 4 g/ha was determined as 50%. The pest or weed control at 100 g/ha came out at 80% in assay [2] (setting [5]) and 17% in assay [3] (setting [7]). Moreover, the “Kill in % after 2^d” value in assay [3] (20 g/ha) came out at 0%. Besides, the pest or weed control at 20 g/ha in assay [3] (setting [6]) was determined as 0%.

For `Cc1nn(C)c(F)c1C(=O)Nc1ccccc1C(C)CC(C)C` (stereo not drawn) [N-[2-(1,3-dimethylbutyl)phenyl]-5-fluoro-1,3-dimethyl-1H-pyrazole-4-carboxamide], the pest or weed control at 200 g/ha in assay [1] (setting [8]) and in assay [3] (setting [9]) was 0% throughout.

In the case of `CSC1=N[C@@](C)(c2ccccc2)C(=O)N1Nc1ccccc1` [fenamidone], the pest or weed control at 200 g/ha in assay [1] (in Brassica oleracea) came to 0%. For the same compound, the “Kill in % after 2^d” value in assay [3] (200 g/ha) was 0%.

On to `CO/N=C(/C(=O)OC)c1ccccc1CO/N=C(\C)c1cccc(C(F)(F)F)c1` [trifloxystrobin], for which, in assay [3] (200 g/ha), the “Kill in % after 2^d” value is given as 0%. Also, the pest or weed control at 200 g/ha in assay [3] (setting [9]) was determined as 33%.

For `Cc1ccc(C(C)NC(=O)[C@@H](NC(=O)OC(C)C)C(C)C)cc1` (stereo partly drawn) [iprovalicarb], the pest or weed control at 200 g/ha in assay [2] (setting [10]) and in assay [3] (setting [9]) was 0% each time.

Turning to `CC(C)(C)C(O)C(Oc1ccc(Cl)cc1)n1cncn1` (stereo not drawn) [triadimenol], the pest or weed control at 200 g/ha in assay [1] (in Brassica oleracea), in assay [2] (setting [10]) and in assay [3] (setting [9]) was 0% throughout. For the same compound, the “Kill in % after 2 d” value in assay [2] (setting [11]) was found to be 0%.

As to `CC(C)(C)C(O)(CCc1ccc(Cl)cc1)Cn1cncn1` (stereo not drawn) [tebuconazole], the results for the pest or weed control at 200 g/ha in assay [1] (in Brassica oleracea), in assay [2] (setting [10]) and in assay [3] (setting [9]) were 0%, 70% and 0%, respectively.

For `O=C1C=C(N(Cc2ccc(Cl)nc2)CC(F)F)CO1` [compound (I-5), 4-{[(6-chloropyrid-3-yl)methyl](2,2-difluoroethyl)amino}furan-2(5H)-one], in assay [1] (in Brassica oleracea), the pest or weed control at 0.8 g/ha is 50%. For the same compound, the pest or weed control at 100 g/ha came to 0% in assay [2] (setting [10]) and 50% in assay [3] (setting [7]). For the same compound, in assay [2] (setting [12]), the “Kill in % after 2 d” value is 20%. In addition, in assay [3] (20 g/ha), the “Kill in % after 2^d” value came to 0%. The pest or weed control at 20 g/ha in assay [3] (setting [6]) was 0%.

As for `N#Cc1c[nH]cc1-c1cccc2c1OC(F)(F)O2` [fludioxonil], the pest or weed control at 200 g/ha came out at 0% in assay [1] (in Brassica oleracea), 0% in assay [2] (setting [10]) and 17% in assay [3] (setting [9]).

On to `CN(Cc1cnc(Cl)c(F)c1)C1=CC(=O)OC1` [compound (I-6), 4-{[(6-chloro-5-fluorpyrid-3-yl)methyl](methyl)amino}furan-2(5H)-one], for which the “Kill in % after 6^d” value in assay [4] (100 g/ha) stood at 0%. The pest or weed control at 100 g/ha in assay [2] (setting [5]) was 0%; in assay [3] (setting [7]) it was 67%. In assay [2] (setting [12]), the “Kill in % after 2 d” value stood at 0%. Besides, in assay [3] (100 g/ha), the “Kill in % after 2^d” value stood at 33%. The pest or weed control at 20 g/ha in assay [3] (setting [6]) came out at 0%.

In the case of `Cc1ccc(N(SC(F)(Cl)Cl)S(=O)(=O)N(C)C)cc1` [tolylfluanid], the “Kill in % after 6^d” value in assay [4] (200 g/ha) was determined as 0%. The pest or weed control at 200 g/ha in assay [1] (in Brassica oleracea) was 0%; in assay [3] (setting [9]), 17%.

Take `O=C(NCc1ncc(C(F)(F)F)cc1Cl)c1c(Cl)cccc1Cl` [fluopicolide]: the “Kill in % after 6 d” value in assay [2] (setting [13]) and in assay [3] (setting [13]) was 0% throughout.

For the compound `CO/C=C(/C(=O)OC)c1ccccc1Oc1cc(Oc2ccccc2C#N)ncn1` [azoxystrobin], in assay [3] (Phaedon cochleariae, 144 h, single active compound, 500 g/ha, 6 d, read-out: Kill in % after 6 d), the pest or weed control at 500 g/ha stood at 0%.

For `O=C(NCCc1ncc(C(F)(F)F)cc1Cl)c1ccccc1C(F)(F)F` [fluopyram, N-[2-[3-chloro-5-(trifluoromethyl)-2-pyridinyl]ethyl]-2-(trifluoromethyl)benzamide], the pest or weed control at 200 g/ha in assay [1] (in Brassica oleracea), in assay [2] (setting [10]) and in assay [3] (setting [9]) was 0% throughout.

Regarding `CCCOC(=O)NCCCN(C)C` [propamocarb], the pest or weed control at 200 g/ha stood at 0% in assay [1] (setting [8]) and 0% in assay [2] (Tetranychus urticae, 144 h, single active compound, 200 g/ha, 6 d, read-out: Kill in % after 6 d). In addition, in assay [2] (setting [11]), the “Kill in % after 2 d” value amounted to 0%.

Turning to `COCC(=O)N(c1c(C)cccc1C)C(C)C(=O)OC` (stereo not drawn) [metalaxyl], the pest or weed control at 200 g/ha in assay [1] (in Brassica oleracea), in assay [2] (setting [10]) and in assay [3] (setting [9]) was 0% throughout.

Take `N#Cc1ccccc1NC(=O)c1snc(Cl)c1Cl` [isotianil]: the pest or weed control at 200 g/ha in assay [1] (in Brassica oleracea), in assay [2] (setting [10]) and in assay [3] (setting [9]) was 0% throughout.

`CC(C)NC(=O)N1CC(=O)N(c2cc(Cl)cc(Cl)c2)C1=O` [iprodione]: the pest or weed control at 200 g/ha was 0% in assay [1] (in Brassica oleracea), 50% in assay [2] (setting [10]) and 0% in assay [3] (setting [9]).

Consider `OC(Cc1ccccc1Cl)(Cn1ncnc1S)C1(Cl)CC1` (stereo not drawn) [prothioconazole], for which the pest or weed control at 200 g/ha in assay [1] (in Brassica oleracea) and in assay [2] (setting [10]) was 0% each time. Further, the “Kill in % after 2^d” value in assay [3] (200 g/ha) is 0%.

The values above are taken from patent publication US20120035050A1, “Synergistic Combinations Of Active Ingredients” (BAYER CROPSCIENCE AG, priority 2009, published 2012).
